From patent US20230265151A1, “GIP/GLP1 CO-AGONIST COMPOUNDS” (priority 2020, published 2023)
Read-outs that look alike come from different tables or passages of the source.

How the values were obtained:
Type in all cases: cell-based
[1] = target: T1, hGIPR (Homo sapiens, UniProt P48546); test: Functional cAMP formation (HTRF) in HEK-293 clonal cells expressing hGIPR, 0.1% bovine casein, without or with 1.0% human serum albumin; details: for Emax: read-out: hGIPR Emax, % ± SEM; for EC50: geometric mean, read-out: hGIPR EC50, nM (SEM, n)
T1 construct: expressed in transfected cells
T1 sequence (P48546 22-466): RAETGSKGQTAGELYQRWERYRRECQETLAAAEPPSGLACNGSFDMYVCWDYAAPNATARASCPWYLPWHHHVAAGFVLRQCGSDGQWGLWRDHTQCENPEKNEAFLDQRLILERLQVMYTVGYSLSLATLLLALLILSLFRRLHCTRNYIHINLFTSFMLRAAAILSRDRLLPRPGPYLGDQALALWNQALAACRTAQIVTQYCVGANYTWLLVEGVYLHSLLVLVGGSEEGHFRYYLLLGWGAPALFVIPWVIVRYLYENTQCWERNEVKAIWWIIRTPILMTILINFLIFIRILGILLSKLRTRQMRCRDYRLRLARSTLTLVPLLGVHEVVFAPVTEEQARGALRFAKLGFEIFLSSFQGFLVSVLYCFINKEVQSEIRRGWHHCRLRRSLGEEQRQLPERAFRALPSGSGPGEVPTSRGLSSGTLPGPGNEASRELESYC
In short: (§1)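 Readings of the HTRF 665/620 nm ratio, which falls as cAMP rises, were converted to nM cAMP using a standard curve after 30 min peptide exposure at 37° C.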

[2] = target: T2, hGCGR (Homo sapiens, UniProt P47871); test: Functional cAMP formation (HTRF) in HEK-293 clonal cells expressing hGCGR, 0.1% bovine casein, without or with 1.0% human serum albumin; details: geometric mean, read-out: hGCGR EC50, nM (SEM, n)
T2 construct: expressed in transfected cells
In short: as §1

[3] = target: hGLP-1R (Homo sapiens, UniProt P43220); test: Functional cAMP formation (HTRF) in HEK-293 clonal cells expressing hGLP-1R, 0.1% bovine casein, without or with 1.0% human serum albumin; parameters: expressed in transfected cells; details: for Emax: read-out: hGLP-1R Emax, % ± SEM; for EC50: geometric mean, read-out: hGLP-1R EC50, nM (SEM, n)
In short: as §1

[4] = cAMP, incubated at 37° C., 0.1% bovine casein (no human serum albumin)
[5] = HEK293, percent of maximal response to GLP-1(7-36)NH2, 37° C., 0.1% bovine casein, arithmetic mean
[6] = 0.1% bovine casein and 1.0% human serum albumin, 37° C.
[7] = HEK293, 0.1% bovine casein and 1.0% human serum albumin, 37° C., percent of maximal response to GIP(1-42)NH2
[8] = HEK293, 0.1% bovine casein and 1.0% human serum albumin, 37° C., percent of maximal response to GLP-1(7-36)NH2

Chain of hGLP-1R (P43220 24-463): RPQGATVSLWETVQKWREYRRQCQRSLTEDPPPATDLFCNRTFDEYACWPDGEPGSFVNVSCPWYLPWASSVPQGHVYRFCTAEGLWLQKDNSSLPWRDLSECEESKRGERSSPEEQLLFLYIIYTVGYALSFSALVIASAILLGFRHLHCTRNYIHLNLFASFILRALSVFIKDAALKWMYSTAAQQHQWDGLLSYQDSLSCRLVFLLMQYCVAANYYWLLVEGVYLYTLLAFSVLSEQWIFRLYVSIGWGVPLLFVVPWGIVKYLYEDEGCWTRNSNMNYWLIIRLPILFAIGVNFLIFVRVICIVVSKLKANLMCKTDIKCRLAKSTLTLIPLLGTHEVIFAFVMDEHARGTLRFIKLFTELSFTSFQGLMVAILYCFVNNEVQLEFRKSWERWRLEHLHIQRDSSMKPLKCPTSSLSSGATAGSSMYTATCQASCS
T2 sequence (P47871 26-477): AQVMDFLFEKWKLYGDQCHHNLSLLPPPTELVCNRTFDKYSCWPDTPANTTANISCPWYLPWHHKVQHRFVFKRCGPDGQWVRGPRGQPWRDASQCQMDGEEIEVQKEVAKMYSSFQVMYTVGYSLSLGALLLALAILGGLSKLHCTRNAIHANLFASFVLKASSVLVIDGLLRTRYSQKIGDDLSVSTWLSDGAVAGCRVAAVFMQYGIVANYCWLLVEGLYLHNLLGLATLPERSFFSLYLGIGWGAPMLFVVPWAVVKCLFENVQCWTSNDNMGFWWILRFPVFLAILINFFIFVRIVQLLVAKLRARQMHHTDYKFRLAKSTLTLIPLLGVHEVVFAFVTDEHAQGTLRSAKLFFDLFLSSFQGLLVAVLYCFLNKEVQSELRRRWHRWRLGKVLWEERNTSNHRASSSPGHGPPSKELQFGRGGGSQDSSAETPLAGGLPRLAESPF

Row | Compound | Emax ([1]; HEK293, percent of maximal response to GIP(1-42)NH2, 37° C., 0.1% bovine casein, arithmetic mean) | EC50 [1, 4] | EC50 [2, 4] | Emax [3, 5] | EC50 [3, 4] | EC50 [1, 6] | Emax [1, 7] | EC50 [2, 6] | EC50 [3, 6] | Emax [3, 8]
1 | CC[C@H](C)[C@H](NC(=O)[C@H](CC(C)C)NC(=O)[C@](C)(Cc1ccc(O)cc1)NC(=O)[C@@H](CCC(=O)O)NC(=O)[C@@H](NC(=O)[C@H](Cc1ccccc1)NC(=O)[C@H](CCC(=O)O)NC(=O)C(C)(C)NC(=O)[C@H](CCC(N)=O)NC(=O)[C@H](C)NC(=O)[C@H](CCCCNC(=O)COCCOCCNC(=O)COCCOCCNC(=O)CC[C@H](NC(=O)CCCCCCCCCCCCC(=O)O)C(=O)O)NC(=O)[C@H](CCCN)NC(=O)[C@H](CC(=O)O)NC(=O)[C@H](CC(C)C)NC(=O)[C@](C)(CC(C)C)NC(=O)[C@@H](NC(=O)[C@H](CO)NC(=O)[C@H](Cc1cccs1)NC(=O)[C@H](CC(=O)O)NC(=O)[C@H](CO)NC(=O)[C@@H](NC(=O)[C@](C)(Cc1ccccc1F)NC(=O)[C@@H](NC(=O)CNC(=O)[C@H](CCC(=O)O)NC(=O)C(C)(C)NC(=O)[C@@H](N)Cc1ccc(O)cc1)[C@@H](C)O)[C@@H](C)O)[C@@H](C)CC)[C@@H](C)CC)C(=O)N[C@@H](CCC(=O)O)C(=O)NCC(=O)NCC(=O)N[C@@H](CCCCNC(=O)COCCOCCNC(=O)COCCOCCNC(=O)CC[C@H](NC(=O)CCCCCCCCCCCCC(=O)O)C(=O)O)C(=O)N[C@@H](CO)C(=O)N[C@@H](CO)C(=O)NCC(=O)N[C@@H](C)C(=O)N1CCC[C@H]1C(=O)N1CCC[C@H]1C(=O)N1CCC[C@H]1C(=O)N[C@@H](CO)C(N)=O [Example 145] | 74.8% | 0.0286 nM | > 9950 nM | 95.1% | 0.555 nM | – | – | – | – | –
2 | CC[C@H](C)[C@H](NC(=O)[C@H](CC(C)C)NC(=O)[C@](C)(Cc1ccc(O)cc1)NC(=O)[C@@H](CCC(=O)O)NC(=O)[C@@H](NC(=O)[C@H](Cc1csc2ccccc12)NC(=O)[C@H](CCC(=O)O)NC(=O)C(C)(C)NC(=O)[C@H](CCC(N)=O)NC(=O)[C@H](C)NC(=O)[C@H](CCCCNC(=O)COCCOCCNC(=O)COCCOCCNC(=O)CC[C@H](NC(=O)CCCCCCCCCCCCC(=O)O)C(=O)O)NC(=O)[C@H](CCCN)NC(=O)[C@H](CC(=O)O)NC(=O)[C@H](CC(C)C)NC(=O)[C@](C)(CC(C)C)NC(=O)[C@@H](NC(=O)[C@H](CO)NC(=O)[C@H](Cc1ccncc1)NC(=O)[C@H](CC(=O)O)NC(=O)[C@H](CO)NC(=O)[C@@H](NC(=O)[C@](C)(Cc1ccccc1F)NC(=O)[C@@H](NC(=O)CNC(=O)[C@H](CCC(=O)O)NC(=O)C(C)(C)NC(=O)[C@@H](N)Cc1ccc(O)cc1)[C@@H](C)O)[C@@H](C)O)[C@@H](C)CC)[C@@H](C)CC)C(=O)N[C@@H](CCC(=O)O)C(=O)NCC(=O)NCC(=O)N[C@@H](CCCCNC(=O)COCCOCCNC(=O)COCCOCCNC(=O)CC[C@H](NC(=O)CCCCCCCCCCCCC(=O)O)C(=O)O)C(=O)N[C@@H](CO)C(=O)N[C@@H](CO)C(=O)NCC(=O)N[C@@H](C)C(=O)N1CCC[C@H]1C(=O)N1CCC[C@H]1C(=O)N1CCC[C@H]1C(=O)N[C@@H](CO)C(N)=O [Example 147] | – | 0.0229 nM | > 9950 nM | 93.5% | 0.338 nM | – | – | – | – | –
3 | CC[C@H](C)[C@H](NC(=O)[C@H](CC(C)C)NC(=O)[C@](C)(Cc1ccc(O)cc1)NC(=O)[C@@H](CCC(=O)O)NC(=O)[C@@H](NC(=O)[C@H](CC1CCCCC1)NC(=O)[C@H](CCC(=O)O)NC(=O)C(C)(C)NC(=O)[C@H](CCC(N)=O)NC(=O)[C@H](C)NC(=O)[C@H](CCCCNC(=O)COCCOCCNC(=O)COCCOCCNC(=O)CC[C@H](NC(=O)CCCCCCCCCCCCC(=O)O)C(=O)O)NC(=O)[C@H](CCCN)NC(=O)[C@H](CC(=O)O)NC(=O)[C@H](CC(C)C)NC(=O)[C@](C)(CC(C)C)NC(=O)[C@@H](NC(=O)[C@H](CO)NC(=O)[C@H](Cc1ccncc1)NC(=O)[C@H](CC(=O)O)NC(=O)[C@H](CO)NC(=O)[C@@H](NC(=O)[C@](C)(Cc1ccccc1F)NC(=O)[C@@H](NC(=O)CNC(=O)[C@H](CCC(=O)O)NC(=O)C(C)(C)NC(=O)[C@@H](N)Cc1ccc(O)cc1)[C@@H](C)O)[C@@H](C)O)[C@@H](C)CC)[C@@H](C)CC)C(=O)N[C@@H](CCC(=O)O)C(=O)NCC(=O)NCC(=O)N[C@@H](CCCCNC(=O)COCCOCCNC(=O)COCCOCCNC(=O)CC[C@H](NC(=O)CCCCCCCCCCCCC(=O)O)C(=O)O)C(=O)N[C@@H](CO)C(=O)N[C@@H](CO)C(=O)NCC(=O)N[C@@H](C)C(=O)N1CCC[C@H]1C(=O)N1CCC[C@H]1C(=O)N1CCC[C@H]1C(=O)N[C@@H](CO)C(N)=O [Example 148] | – | 0.0209 nM | > 9950 nM | 94.5% | – | – | – | – | – | –
4 | CC[C@H](C)[C@H](NC(=O)[C@H](CC(C)C)NC(=O)[C@](C)(Cc1ccc(O)cc1)NC(=O)[C@@H](CCC(=O)O)NC(=O)[C@@H](NC(=O)[C@H](Cc1ccccc1)NC(=O)[C@H](CCCN)NC(=O)C(C)(C)NC(=O)[C@H](CCC(N)=O)NC(=O)[C@H](C)NC(=O)[C@H](CCCCNC(=O)COCCOCCNC(=O)COCCOCCNC(=O)CC[C@H](NC(=O)CCCCCCCCCCCCC(=O)O)C(=O)O)NC(=O)[C@H](CCCN)NC(=O)[C@H](CC(=O)O)NC(=O)[C@H](CC(C)C)NC(=O)[C@](C)(CC(C)C)NC(=O)[C@@H](NC(=O)[C@H](CO)NC(=O)[C@H](Cc1ccncc1)NC(=O)[C@H](CC(=O)O)NC(=O)[C@H](CO)NC(=O)[C@@H](NC(=O)[C@](C)(Cc1ccccc1F)NC(=O)[C@@H](NC(=O)CNC(=O)[C@H](CCC(=O)O)NC(=O)C(C)(C)NC(=O)[C@@H](N)Cc1ccc(O)cc1)[C@@H](C)O)[C@@H](C)O)[C@@H](C)CC)[C@@H](C)CC)C(=O)N[C@@H](CCC(=O)O)C(=O)NCC(=O)NCC(=O)N[C@@H](CCCCNC(=O)COCCOCCNC(=O)COCCOCCNC(=O)CC[C@H](NC(=O)CCCCCCCCCCCCC(=O)O)C(=O)O)C(=O)N[C@@H](CO)C(=O)N[C@@H](CO)C(=O)NCC(=O)N[C@@H](C)C(=O)N1CCC[C@H]1C(=O)N1CCC[C@H]1C(=O)N1CCC[C@H]1C(=O)N[C@@H](CO)C(N)=O [Example 150] | – | – | > 9950 nM | – | – | 0.35 nM | 81.3 ± 3.18% | > 9950 nM | 11 nM | 100 ± 3.8%
5 | CC[C@H](C)[C@H](NC(=O)[C@H](CC(C)C)NC(=O)[C@](C)(Cc1ccc(O)cc1)NC(=O)[C@@H](CCC(=O)O)NC(=O)[C@@H](NC(=O)[C@H](Cc1ccccc1)NC(=O)[C@H](CCC(=O)O)NC(=O)C(C)(C)NC(=O)[C@H](CCC(N)=O)NC(=O)[C@H](C)NC(=O)[C@H](CCCCNC(=O)COCCOCCNC(=O)COCCOCCNC(=O)CC[C@H](NC(=O)CCCCCCCCCCCCC(=O)O)C(=O)O)NC(=O)[C@H](CCCN)NC(=O)[C@H](CC(=O)O)NC(=O)[C@H](CC(C)C)NC(=O)[C@](C)(CC(C)C)NC(=O)[C@@H](NC(=O)[C@H](CO)NC(=O)[C@H](Cc1ccncc1)NC(=O)[C@H](CC(=O)O)NC(=O)[C@H](CO)NC(=O)[C@@H](NC(=O)[C@](C)(Cc1ccccc1F)NC(=O)[C@@H](NC(=O)CNC(=O)[C@H](CCC(=O)O)NC(=O)C(C)(C)NC(=O)[C@@H](N)Cc1ccc(O)cc1)[C@@H](C)O)[C@@H](C)O)[C@@H](C)CC)[C@@H](C)CC)C(=O)N[C@@H](CCCN)C(=O)NCC(=O)NCC(=O)N[C@@H](CCCCNC(=O)COCCOCCNC(=O)COCCOCCNC(=O)CC[C@H](NC(=O)CCCCCCCCCCCCC(=O)O)C(=O)O)C(=O)N[C@@H](CO)C(=O)N[C@@H](CO)C(=O)NCC(=O)N[C@@H](C)C(=O)N1CCC[C@H]1C(=O)N1CCC[C@H]1C(=O)N1CCC[C@H]1C(=O)N[C@@H](CO)C(N)=O [Example 151] | – | 0.0197 nM | > 9950 nM | – | 0.546 nM | 0.306 nM | 87.5 ± 3.78% | > 9950 nM | 17.3 nM | 112 ± 8.42%
